According to patent US20190255138A1, “A NATURAL COMPOSITION TO INHIBIT BETA-SECRETASE AND ENHANCE BIOAVAILABILITY COMPRISING OF TURMERIC AND SESAME SEED EXTRACT” (priority 2016, published 2019):
Non-standard residues stand in square brackets, D forms with d. No end group written: not given here. Sta = CC(C)C[C@H](N)[C@@H](O)CC(=O)O

Biological target: β-Secretase (human, recombinant) (Homo sapiens, UniProt P56817)
Assay: β-Secretase inhibitory activity assay (fluorescent substrate, HPLC peak area of degradative fragment)
Type: biochemical
Conditions: inhibitor 2 μg/ml; for Peak area ± S.D.: mean ± S.D. of triplicates
Experimental: (§1) β-Secretase (human, recombinant), A fluorescent substrate [MOCAc-[…](Dnp) Arg-Arg-NH2] and a β-secretase inhibitor[[…]Sta-Val-Ala-Glu-Phe(Sta:(3S,4S)-4-amino-3-hydroxy-6-methylheptanoic acid)] Other reagents used in this study were analytical grade. Sesamin-sesamolin in different ratios prepared as per examples 10.
(§2) Samples in a dimethylsulfoxide solution (2 μl), at an appropriate concentration, were diluted with 78 μl of assay buffer (20 mM acetate buffer, pH=4.5 containing 1% triton X-100) in a 96-well microplate. 10 μl of β-secretase solution in assay buffer (17.4 μg protein/ml) was added to the diluted solution, and incubated at 37° C. for 20 min. After incubation, 10 μl of substrate solution with assay buffer (0.1 mM) was added and incubated at 37° C. for 2 h. Fifty μl of reaction solution was then added to 450 μl of 2.5 M sodium acetate solution to terminate the reaction. The diluted solution was analyzed by HPLC applying the conditions listed below. Column: L-column ODS (Chemicals Evaluation and Research Institute, Tokyo, Japan, 4.6 i.d.×250 mm), mobile phase; 0.1% (v/v) formic acid/acetonitrile (0.1% (v/v) formic acid); 0 min (9:1), 17.5 min (5.5:4.5), 17.6 min (0.5:9.5), 22.5 min (0.5:9.5), column temperature: 40° C., flow rate; 1 ml/min, detection; fluorescent of excitation at 325 nm and emission at 395 nm, injection volume; 20 μl. The peak area of the peak derived from the degradative fluorescent fragment (retention time 15.7 min) was integrated and the peak area was found. The inhibitory activity of the sample was calculated using the following equation.
Inhibition (%)=100−[(Peak area from sample group)/(Peak area from control group)×100]
as §1, with “recombinant).” for “recombinant),”, “acid)].” for “acid)]”, “Essential oil of turmeric (EOT) with” for “Sesamin-sesamolin in”, “percentage of α-turmerone” for “ratios”, “2.” for “10.”
as §2, with “temperature;” for “temperature:”
β-Secretase (human, recombinant), A fluorescent substrate [MOCAc-[…](Dnp) Arg-Arg-NH2] and a β-secretase inhibitor[[…]Sta-Val-Ala-Glu-Phe(Sta:(3S,4S)-4-amino-3-hydroxy-6-methylheptanoic acid)]. Other reagents used in this study were analytical grade.
Samples in a dimethylsulfoxide solution (2 μl), at an appropriate concentration, were diluted with […] of assay buffer (20 mM acetate buffer, pH=4.5 containing 1% triton X-100) in a 96-well microplate. 10 μl of β-secretase solution in assay buffer (17.4 μg protein/ml) was added to the diluted solution, and incubated at 37° C. for 20 min.

Chain of β-Secretase (human, recombinant) (P56817 46-501): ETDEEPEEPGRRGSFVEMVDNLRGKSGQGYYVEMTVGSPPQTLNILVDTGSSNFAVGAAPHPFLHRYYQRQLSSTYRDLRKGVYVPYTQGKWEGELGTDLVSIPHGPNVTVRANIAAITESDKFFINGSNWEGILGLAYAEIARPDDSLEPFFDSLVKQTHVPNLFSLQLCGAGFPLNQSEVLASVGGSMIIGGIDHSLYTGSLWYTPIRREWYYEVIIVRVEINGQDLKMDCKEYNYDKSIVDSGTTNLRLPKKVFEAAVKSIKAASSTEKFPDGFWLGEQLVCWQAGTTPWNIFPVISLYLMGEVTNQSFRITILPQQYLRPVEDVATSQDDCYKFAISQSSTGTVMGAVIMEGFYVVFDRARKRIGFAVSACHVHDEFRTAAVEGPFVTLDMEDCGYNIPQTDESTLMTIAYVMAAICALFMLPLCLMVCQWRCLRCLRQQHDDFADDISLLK

Inhibition (%) (Example 17): 47.33%
Peak area ± S.D. (Example 17): 2256512 ± 24323
Inhibition (%) (Example 18): 45.67%
Peak area ± S.D. (Example 18): 2386115 ± 25498
Inhibition (%) (Example 19): 48.31%
Peak area ± S.D. (Example 19): 2418426 ± 23621
Inhibition (%) (Example 20): 48.8%
Peak area ± S.D. (Example 20): 2299129 ± 25842
Inhibition (%) (Example 22): 45.77%
Peak area ± S.D. (Example 22): 2385632 ± 27453
Substance: KTEEISEVN[Sta]VAEF [Inhibitor]
